Measurements from patent EP2961395B1, “TARGETED NANOPARTICLES” (CALIFORNIA INSTITUTE OF TECHNOLOGY, priority 2013, dated 2014).
Read-outs that look alike come from different tables or passages of the source.

What was measured:
MCF-7 = experiment: Cytotoxicity assay (CellTiter 96 AQueous One) in MCF-7; assay type: cell-based; conditions: Homo sapiens, MCF7; MCF-7 (HER2 -); 72 h; CPT-containing items based on CPT content
Excerpt: (§1) Wells containing untreated cells were used as controls.

MDA-MB-231 = experiment: Cytotoxicity assay (CellTiter 96 AQueous One) in MDA-MB-231; assay type: cell-based; conditions: Homo sapiens; MDA-MB-231 (HER2 -); 72 h; CPT-containing items based on CPT content
Excerpt: as §1

SKBR-3 = experiment: Cytotoxicity assay (CellTiter 96 AQueous One) in SKBR-3; assay type: cell-based; conditions: Homo sapiens, SK-BR-3; SKBR-3 (HER2 +); 72 h; CPT-containing items based on CPT content
Excerpt: as §1

BT-474 = experiment: Cytotoxicity assay (CellTiter 96 AQueous One) in BT-474; assay type: cell-based; conditions: Homo sapiens; BT-474 (HER2 +); 72 h; CPT-containing items based on CPT content
Excerpt: as §1

[1] = Plasma pharmacokinetics of free CPT in CD2F1 mice (comparison)
Experimental: A DNA ladder is loaded in Lane 1. […] A DNA ladder is loaded in Lane 1. […] Free CPT injected at 10 mg/kg into CD2F1 mice is shown as comparison. (A) Plasma concentration of polymer bound CPT as a function of time. […] (A) Percent injected dose (ID) of total CPT per gram of tumor, heart, liver, spleen, kidney or lung. (B) Percentage of total CPT in each organ that is unconjugated in tumor, heart, liver, spleen, kidney and lung. (C) Total concentration of CPT in plasma.

BT-474 xenograft tumors = tested on: BT-474 xenograft tumors
Experimental: Treatments began on day 1. […] All treatments were freshly prepared and given via intravenous tail vein injection. Injections were standardized at 150 µl per 20 g body weight of mice. […] Tumor sizes were recorded three times a week using caliper measurements (length x width^2/2) and health of the animals was continuously monitored. Animals were euthanized when tumor volumes exceeded 1000 mm^3. Six weeks after beginning of the treatment, animals were euthanized by CO2 asphyxiation.

[2] = pKa determination by absorbance change on titration; assay type: physicochemical; conditions: 10^-3 M PBA in 0.1 M PBS, titrated with 1 N NaOH, absorbance at 268 nm
Experimental: The pKa of the synthesized PBA compounds were found by measuring the change in absorbance of PBA as it converted from trigonal (in low pH) to tetrahedral (in high pH) conformation. To a solution of 10^-3 M PBA in 0.1 M PBS, pH 7.4 was titrated 1 N NaOH. pH was recorded and corresponding samples were removed for absorbance measurements at 268 nm. Table 2. pKa and binding constants of PBA compounds
pKa values of the modified PBAs were determined by absorbance changes due to conformational change of PBA from trigonal to tetrahedral form as the pH was increased (Table 2). […] Thus, at physiological pH, most of the PBA was present in the reactive anionic tetrahedral form. Binding constants between PBA and MAP were found by competitive binding with Alizarin Red S in 0.1 M PBS, pH 7.4.

[3] = 8 mg/kg (MAP-CPT on CPT basis) i.v. once per week for 3 weeks
[4] = 80 mg/kg i.v. once per week for 3 weeks

CC[C@@]1(O)C(=O)OCc2c1cc1n(c2=O)Cc2cc3ccccc3nc2-1 [CPT, Camptothecin]
IC50 (MCF-7): 300 nM
IC50 (MDA-MB-231): 100 nM
IC50 (SKBR-3): 30 nM
IC50 (BT-474): 4000 nM
AUC ([1]; CD2F1, mouse, in vivo, 10 mg/kg): 1600 ng·h/mL
injected dose remaining in circulation ([1]; after 8 h, CPT alone at 10 mg/kg): 0.01%
Mean tumor volume (BT-474 xenograft tumors; [3]): 808 mm^3
Median tumor volume (BT-474 xenograft tumors; [3]): 417 mm^3
NTRD (number of treatment related death) (BT-474 xenograft tumors; [3]): 4
Nend (number of animals surviving to end of study) (BT-474 xenograft tumors; [3]): 8/0
Neuthan (number of animals euthanized due to exceeding tumor size limit of 1000 mm^3) (BT-474 xenograft tumors; [3]): 4
Nreg to zero (number of animals with tumors regressed to zero at the end of study) (BT-474 xenograft tumors; [3]): 0
tumor inhibition compared to control group (BT-474 xenograft tumors; [3]): no tumor inhibition

CCc1c2c(nc3ccc(OC(=O)N4CCC(N5CCCCC5)CC4)cc13)-c1cc3c(c(=O)n1C2)COC(=O)[C@]3(O)CC [Irinotecan]
NTRD (number of treatment related death) (BT-474 xenograft tumors; [4]): 1
Nend (number of animals surviving to end of study) (BT-474 xenograft tumors; [4]): 8/7
Neuthan (number of animals euthanized due to exceeding tumor size limit of 1000 mm^3) (BT-474 xenograft tumors; [4]): 0
Nreg to zero (number of animals with tumors regressed to zero at the end of study) (BT-474 xenograft tumors; [4]): 0
tumor inhibition compared to control group (BT-474 xenograft tumors; [4]): non-significant tumor inhibition

OB(O)c1ccccc1 [PBA, phenylboronic acid]
pKa [2]: 8.8
